{"source": "patent US12540164B2", "about": "“Peptides for treatment and prevention of nonalcoholic fatty liver disease and fibrosis” (UNIVERSITE DE STRASBOURG, priority 2017, dated 2026)", "key": {"[1]": {"test_system": "FATP2", "assay": "Expression levels of FATPs and FFARs in adipose tissue by real-time PCR after peptide injection", "type": "in vivo, mice", "conditions": "11 days post single injection in subcutaneous adipose tissue, GAPDH reference, n=4 per group", "protocol": "Mice were injected with a single dose of either scramble peptide or PATAD or ADPIF. 11 days post injection, the mice were euthanized and adipose tissue was sampled for RNA extraction followed by real-time PCR.\nFor this study, mice were on a C57/BL6 genetic background. All animals were housed in a temperature and humidity controlled facility, with a 12 h-light/12 h-dark cycle fed during the whole phase mice will be fed with a 60% high fat diet from Research Diets (D12492), and tap water will be provided ad libitum. Mice were fed and tested regularly for glucose tolerance test for their glucose tolerance and once they were glucose intolerant they were used for treatment.\nAll peptides were initially dissolved in DMSO and then diluted in sterile saline solution at a concentration of 10 ng/μL. 2.5 μL of each peptide (stapled or scrambled) were mixed and then injected directly in the subcutaneous adipose tissue in each mouse."}, "[2]": {"test_system": "LOXL2", "assay": "LOXL2 ELISA on liver extracts", "type": "in vivo", "conditions": "3 months post unique injection in subcutaneous adipose tissue, DIO male mice, n=4", "from_the_text": "LOXL2 is the enzyme promoting the development of fibrotic lesions by favoring the polymerization of collagen and FABP4 is a protein involved in lipid metabolism whose level increases with increasing lipid deposition in the liver.\nFor LOXL2 and GLP-1 measurements, the two commercially available kits: Lysyl Oxydase Like Protein 2 (LOXL2), Enzyme-linked Immunosorbent Assay Kit, Mus musculus, SEF552Mu, Cloud Clone Corp;\nFor the measurements on the liver extracts, the same kit for LOXL2 was used and for FABP4, the commercial kit used was the Elisa kit for Fatty Acid Binding Protein 4, Adipocyte (FABP4), SEB693Mu, Cloud Clone Corp."}, "[3]": {"test_system": "Sterol regulatory element binding transcription factor 1 (Srebf1)", "assay": "Hepatic expression of Srebf1 (q-PCR)", "type": "in vivo", "conditions": "11 days post injection in the adipose tissue; DIO male mice; vs control", "from_the_text": "AdipoRed Staining of Liver Sections"}, "[4]": {"test_system": "fibrotic depots in the liver", "assay": "Transmitted electron microscopy of liver sections for fibrotic depots", "type": "in vivo", "conditions": "DIO-NASH mice, 3 months after injection in subcutaneous adipose tissue", "protocol": "For the electron microscopy imaging on the liver extracts, the samples were immersed in glutaraldehyde (2.5%) and paraformaldehyde (2.5%) in cacodylate buffer (0.1 M, pH 7.4). The samples were post-fixed in 1% osmium tetroxide, dehydrated through graded alcohol (50, 70, 90, and 100%) and propylene oxide for 30 minutes each, and embedded in Epon 812. Semithin sections were cut at 2 μm on an ultra microtome (Leica Ultracut UCT) and ultrathin sections were cut at 70 nm and contrasted with uranyl acetate and lead citrate and examined at 70 kv with a Morgagni 268D electron microscope. Images were captured digitally by Mega View III camera (Soft Imaging System)."}, "[5]": {"test_system": "Collagen IV", "assay": "Immunostaining of kidney cryosections for Collagen IV", "type": "in vivo", "conditions": "DIO(-NASH) mice 3 months post treatment; vs vehicle", "from_the_text": "Cryosections of kidneys from DIO vehicle treated and DIO ADPIF treated mice 3 months post treatment, were immunostained for collage IV deposition and tight junction with a ZO-1 antibody to assess the effect of ADPIF peptide on fibrosis progression in other soft tissues. For immunofluorescence experiments, liver and kidneys freshly sampled were included in Optimal Cutting Temperature Compound™ (OCT™, Catalog #4583, Tissue-Tek® OCT™, Sakura® Finetek, Torrance, California, USA) and cryosections of 7 μm were cut with Cryostat Leica CM1950. Cryosections were washed with 1×PBS and fixated in 4% formaldehyde solution for 15 min (Catalog #: F555-4L, Sigma-Aldrich, Saint-Louis, Missouri, USA) and then permeabilized with 0.02% SDS-PBS for 30 seconds. Blocking solution was 5%-Bovine Serum Albumin (BSA) in PBS. Primary antibodies were diluted in blocking solution and incubated overnight and indicated secondary antibodies were diluted in PBS for 30 minutes. Nuclei were counterstained with Hoechst (Catalog #: D1306, Invitrogen, Carlsbad, California, USA). Slides were then mounted with Vectashield® Mounting Medium (Catalog #: H-1000, Vector Laboratories, Burlingame, California, USA). Images were acquired and analyzed with Zeiss Imager.Z2 microscope equipped with either Zeiss AxioVision or Zeiss ZEN 2012 software (Carl Zeiss Inc., Oberkochen, Germany). […]"}, "[6]": {"assay": "STAM model of non-alcoholic steatohepatitis: liver triglyceride content", "type": "in vivo", "conditions": "STAM NASH mice", "protocol": "(§1) NASH was induced in 12 male mice by a single subcutaneous injection of 200 μg streptozotocin (STZ, Sigma-Aldrich, USA) solution 2 days after birth and feeding with high fat diet (HFD, 57 kcal % fat, Cat #HFD32, CLEA Japan, Inc., Japan) after 4 weeks of age.\nThe peptide was administered subcutaneously in the adipose tissue in a volume of […] per mouse.\n(§2) The peptide was administered at a dose of 25 microgram (μg) per mouse once weekly.\nLiver total lipid-extracts were obtained by Folch's method (Folch J. et al., J. Biol. Chem. 1957; 226: 497). Liver samples were homogenized in chloroform-methanol (2:1, v/v) and incubated overnight at room temperature. After washing with chloroform-methanol-water (8:4:3, v/v/v), the extracts were evaporated to dryness, and dissolved in isopropanol. Liver triglyceride content was measured by Triglyceride E-test (Wako Pure Chemical Industries, Ltd., Japan).\n(§3) Six NASH mice were subcutaneously in the adipose tissue administered vehicle supplemented with ADPIF peptide at a dose of […] per mouse once weekly from 4 to 9 weeks of age."}, "[7]": {"assay": "STAM model of non-alcoholic steatohepatitis: Sirius red staining, fibrosis area", "type": "in vivo", "conditions": "STAM NASH mice", "protocol": "NASH was induced in 12 male mice by a single subcutaneous injection of 200 μg streptozotocin (STZ, Sigma-Aldrich, USA) solution 2 days after birth and feeding with high fat diet (HFD, 57 kcal % fat, Cat #HFD32, CLEA Japan, Inc., Japan) after 4 weeks of age. The peptide was administered subcutaneously in the adipose tissue in a volume of […] per mouse. The peptide was administered at a dose of 25 microgram (μg) per mouse once weekly. To visualize collagen deposition, Bouin's fixed liver sections were stained using picro-Sirius red solution (Waldeck, Germany). For quantitative analysis of fibrosis area, bright field images of Sirius red-stained sections were captured around the central vein using a digital camera (DFC295; Leica, Germany) at 200-fold magnification, and the positive areas in 5 fields/section were measured using ImageJ software (National Institute of Health, USA). Six NASH mice were subcutaneously in the adipose tissue administered vehicle supplemented with ADPIF peptide at a dose of […] per mouse once weekly from 4 to 9 weeks of age."}, "[8]": {"assay": "STAM model of non-alcoholic steatohepatitis: body weight, viability and general condition", "type": "in vivo", "conditions": "STAM NASH mice, any day during the treatment period", "protocol": "as §1, §2, §3\nThe viability, clinical signs and behavior were monitored daily. Body weight was recorded before the treatment. […] The animals were sacrificed at 9 weeks of age by exsanguination through direct cardiac puncture under isoflurane anesthesia (Pfizer Inc.)."}, "[9]": {"conditions": "25 μg per mouse SC once weekly 4-9 wks of age, sacrifice 9 wks, n = 6"}, "[10]": {"conditions": "25 μg per mouse SC once weekly 4-9 wks, Student's t-test"}}, "note": "“Also recorded” adds a separate entry of the source. Ends that are not written are not given here.", "data": [{"sequence": "VECTTREKEVLASLDKAAFLTQLHS (not fully specified (bridges)) [ADPIF, R and S carry the stapling, preferably 2-(7-octenyl)arginine and 2-(4-pentenyl)serine]", "values": [{"measurement": "FATP2 expression level in the adipose tissue", "setting": "[1]", "result": "more active than PATAD peptide"}, {"measurement": "hepatic protein content of LOXL2", "setting": "[2]", "result": "more potent than PATAD; also recorded: significant decrease"}, {"measurement": "hepatic expression level of Srebf1", "setting": "[3]", "result": "repressed; also recorded: significantly decreased"}, {"measurement": "fibrotic depots / lesions in liver by transmitted electron microscopy", "setting": "[4]", "result": "no longer detected; also recorded: No such fibrotic depots were found"}, {"measurement": "Collagen IV depots in the kidney (immunostaining)", "setting": "[5]", "result": "clear reduction; also recorded: More depots of Collagen IV are observed in the DIO-NASH vehicle than in the ADPIF treated"}, {"measurement": "Liver triglyceride (mean ± SD)", "setting": "[6]; [9]", "result": "35.1 ± 17.8", "unit": "mg/g liver"}, {"measurement": "liver triglyceride content compared with the Vehicle group", "setting": "[6]; [10]", "result": "significant decrease"}, {"measurement": "Sirius red-positive area (mean ± SD)", "setting": "[7]; [9]", "result": "0.62 ± 0.17", "unit": "%"}, {"measurement": "fibrosis area (Sirius red-positive area) compared with the Vehicle group", "setting": "[7]; [10]", "result": "significant decrease"}, {"measurement": "mean body weight compared with the Vehicle group", "setting": "[8]", "result": "no significant differences"}]}]}
